Legend:
[1] = target: T1, Avi-KRAS G12D (1-169) GppNHp/RAF1 RBD-3xFLAG (52-151) (Homo sapiens, UniProt P01116, G12D); experiment: Raf1-KRAS G12D-GppNHP disruption HTRF assay (Biological Example 1); format: binding; details: KRAS G12D, GppNHp-loaded; Table 11
T1 construct: Avi-KRAS G12D (1-169)
How it was run: (§1)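 HTRF PPI disruption; buffer 50 mM Tris pH 7.5, 100 mM NaCl, 5 mM MgCl2, 0.1% BSA, 0.01% Tween, 10% DMSO. Protein mix 1 h RT shaking, reagent mix 1 h RT shaking. Data as % activity vs DMSO (100%).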

[2] = target: T2, Avi-KRAS G12R (1-169) GppNHp/RAF1 RBD-3xFLAG (52-151) (Homo sapiens, UniProt P01116, G12R); experiment: Raf1-KRAS G12R-GppNHP disruption HTRF assay (Biological Example 1); format: binding; details: KRAS G12R, GppNHp-loaded; Table 11
T2 construct: Avi-KRAS G12R (1-169)
T2 sequence (P01116 1-169 isoform P01116-2 G12R): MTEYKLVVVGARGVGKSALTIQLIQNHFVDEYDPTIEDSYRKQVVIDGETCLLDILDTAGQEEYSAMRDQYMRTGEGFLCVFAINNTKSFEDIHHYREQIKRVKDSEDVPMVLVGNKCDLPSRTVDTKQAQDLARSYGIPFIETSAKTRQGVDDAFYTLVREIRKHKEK
How it was run: as §1

[3] = target: T3, Avi-KRAS G12V (1-169) GppNHp/RAF1 RBD-3xFLAG (52-151) (Homo sapiens, UniProt P01116, G12V); experiment: Raf1-KRAS G12V-GppNHP disruption HTRF assay (Biological Example 1); format: binding; details: KRAS G12V, GppNHp-loaded; Table 11
T3 construct: Avi-KRAS G12V (1-169)
T3 sequence (P01116 1-169 isoform P01116-2 G12V): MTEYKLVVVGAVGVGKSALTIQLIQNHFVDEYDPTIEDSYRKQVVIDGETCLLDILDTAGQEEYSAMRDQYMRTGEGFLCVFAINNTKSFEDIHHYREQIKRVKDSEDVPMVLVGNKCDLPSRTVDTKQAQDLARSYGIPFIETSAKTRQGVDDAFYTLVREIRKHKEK
How it was run: as §1

[4] = target: T4, Avi-KRAS WT (1-169) GppNHp/RAF1 RBD-3xFLAG (52-151) (Homo sapiens, UniProt P01116); experiment: Raf1-KRAS WT-GppNHP disruption HTRF assay (Biological Example 1); format: binding; details: KRAS WT, GppNHp-loaded; Table 11
T4 construct: Avi-KRAS WT (1-169)
T4 sequence (P01116 1-169 isoform P01116-2): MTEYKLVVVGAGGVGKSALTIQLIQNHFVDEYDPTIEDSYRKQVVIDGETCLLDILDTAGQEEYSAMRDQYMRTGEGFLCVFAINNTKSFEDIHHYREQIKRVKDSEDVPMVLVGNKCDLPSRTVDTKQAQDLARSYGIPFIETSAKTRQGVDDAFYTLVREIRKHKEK
How it was run: as §1

[5] = test system: GP2d cells (KRAS G12D); experiment: Cell-based pERK HTRF assay in GP2d cell (Biological Example 2); details: GP2d (KRAS G12D) cells, pERK HTRF
How it was run: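 Phospho-ERK is measured by HTRF following a 60 min compound exposure at 0.25% DMSO, with a 9-point half-log curve topping at 1 μM or 100 nM.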

T1 sequence (P01116 1-169 isoform P01116-2 G12D): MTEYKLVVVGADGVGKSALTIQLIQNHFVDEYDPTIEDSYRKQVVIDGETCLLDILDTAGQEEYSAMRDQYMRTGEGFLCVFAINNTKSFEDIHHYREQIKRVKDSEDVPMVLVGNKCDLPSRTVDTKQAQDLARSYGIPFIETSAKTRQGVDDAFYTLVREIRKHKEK

C[C@@H]1COCCN1c1nc(OC[C@@]23CCCN2C[C@H](F)C3)nc2c(F)c(-c3ccc(F)c4sc(N)c(C#N)c34)c(C(F)(F)F)cc12 [Compound 134]
IC50 [1]: 0.1 to 1 µM
IC50 [2]: 0.1 to 1 µM
IC50 [3]: 1 to 10 µM
IC50 [4]: 0.1 to 1 µM
IC50 ([5]; GP2d): < 0.1 µM

CN(c1nc(OC[C@@]23CCCN2C[C@H](F)C3)nc2c(F)c(-c3ccc(F)c4sc(N)c(C#N)c34)c(Cl)cc12)[C@H]1C[C@@H](O)C1 [Compound 24]
IC50 [1]: 0.1 to 1 µM
IC50 [2]: 0.1 to 1 µM
IC50 [3]: 0.1 to 1 µM
IC50 [4]: 0.1 to 1 µM
IC50 ([5]; GP2d): < 0.1 µM

CN(CCCO)c1nc(OC[C@@]23CCCN2C[C@H](F)C3)nc2c(F)c(-c3ccc(F)c4sc(N)c(C#N)c34)c(C(F)(F)F)cc12 [Compound 73]
IC50 [1]: 0.1 to 1 µM
IC50 [2]: 0.1 to 1 µM
IC50 [3]: 0.1 to 1 µM
IC50 [4]: 0.1 to 1 µM
IC50 ([5]; GP2d): < 0.1 µM

N#Cc1c(N)sc2c(F)ccc(-c3c(C(F)(F)F)cc4c(N5CC6CCC(C5)C6CO)nc(OC[C@@]56CCCN5C[C@H](F)C6)nc4c3F)c12 (stereo partly drawn) [Compound 47]
IC50 [1]: < 0.1 µM
IC50 [2]: 0.1 to 1 µM
IC50 [3]: 0.1 to 1 µM
IC50 [4]: 0.1 to 1 µM
IC50 ([5]; GP2d): < 0.1 µM

CN(c1nc(OC[C@@]23CCCN2C[C@H](F)C3)nc2c(F)c(-c3ccc(F)c4sc(N)c(C#N)c34)c(C(F)(F)F)cc12)[C@@H]1CCC[C@H]1CO [Compound 87]
IC50 [1]: > 10 µM
IC50 [2]: > 10 µM
IC50 [3]: > 10 µM
IC50 [4]: > 10 µM
IC50 ([5]; GP2d): > 1 µM

CCC(=O)N1CC[C@@H](N(C)c2nc(OC[C@@]34CCCN3C[C@H](F)C4)nc3c(F)c(-c4ccc(F)c5sc(N)c(C#N)c45)c(C(F)(F)F)cc23)[C@H]1C [Compound 116]
IC50 [1]: 0.1 to 1 µM
IC50 [2]: 0.1 to 1 µM
IC50 [3]: 0.1 to 1 µM
IC50 [4]: 0.1 to 1 µM
IC50 ([5]; GP2d): < 0.1 µM

CCN(CC)c1nc(OC[C@@]23CCCN2C[C@H](F)C3)nc2c(F)c(-c3ccc(F)c4sc(N)c(C#N)c34)c(C(F)(F)F)cc12 [Compound 152]
IC50 [1]: < 0.1 µM
IC50 [2]: 0.1 to 1 µM
IC50 [3]: 0.1 to 1 µM
IC50 [4]: 0.1 to 1 µM
IC50 ([5]; GP2d): < 0.1 µM

N#Cc1c(N)sc2c(F)ccc(-c3c(C(F)(F)F)cc4c(N5CC6CCC5CO6)nc(OC[C@@]56CCCN5C[C@H](F)C6)nc4c3F)c12 (stereo partly drawn) [Compound 146]
IC50 [1]: 0.1 to 1 µM
IC50 [2]: 0.1 to 1 µM
IC50 [3]: 0.1 to 1 µM
IC50 [4]: 0.1 to 1 µM
IC50 ([5]; GP2d): < 0.1 µM

CN(c1nc(OC[C@@]23CCCN2C[C@H](F)C3)nc2c(F)c(-c3ccc(F)c4sc(N)c(C#N)c34)c(C(F)(F)F)cc12)[C@@H]1CCS(=O)(=O)C1 [Compound 93]
IC50 [1]: 0.1 to 1 µM
IC50 [2]: 0.1 to 1 µM
IC50 [3]: 0.1 to 1 µM
IC50 [4]: 0.1 to 1 µM
IC50 ([5]; GP2d): < 0.1 µM

CN(c1nc(OC[C@@]23CCCN2C[C@H](F)C3)nc2c(F)c(-c3ccc(F)c4sc(N)c(C#N)c34)c(C(F)(F)F)cc12)[C@@H]1CCN(S(C)(=O)=O)C1 [Compound 95]
IC50 [1]: 0.1 to 1 µM
IC50 [2]: 0.1 to 1 µM
IC50 [3]: 0.1 to 1 µM
IC50 [4]: 0.1 to 1 µM
IC50 [5]: < 0.1 µM

CC(=O)N1CCC(N(C)c2nc(OCC34CCCN3CC(F)C4)nc3c(F)c(-c4ccc(F)c5scc(C#N)c45)c(C(F)(F)F)cc23)C1 (stereo not drawn) [Compound 105]
IC50 [1]: > 10 µM
IC50 [2]: > 10 µM
IC50 [3]: > 10 µM
IC50 [4]: > 10 µM
IC50 [5]: > 1 µM

N#Cc1c(N)sc2c(F)ccc(-c3c(C(F)(F)F)cc4c(N5CCC(CO)CC5)nc(OC[C@@]56CCCN5C[C@H](F)C6)nc4c3F)c12 [Compound 44, 2-amino-7-fluoro-4-(8-fluoro-2-(((2R,7aS)-2-fluorotetrahydro-1H-pyrrolizin-7a(5H)-yl)methoxy)-4-(4-(hydroxymethyl)piperidin-1-yl)-6-(trifluoromethyl)quinazolin-7-yl)benzo[b]thiophene-3-carbonitrile]
IC50 [1]: 0.1 to 1 µM
IC50 [2]: 0.1 to 1 µM
IC50 [3]: 0.1 to 1 µM
IC50 [4]: 0.1 to 1 µM
IC50 ([5]; GP2d): < 0.1 µM

CN(c1nc(OC[C@@]23CCCN2C[C@H](F)C3)nc2c(C#N)c(-c3ccc(F)c4sc(N)c(C#N)c34)c(Cl)cc12)[C@H]1C[C@@H](O)C1 [Compound 30, 7-(2-amino-3-cyano-7-fluorobenzo[b]thiophen-4-yl)-6-chloro-2-(((2R,7aS)-2-fluorotetrahydro-1H-pyrrolizin-7a(5H)-yl)methoxy)-4-(((1s,3R)-3-hydroxycyclobutyl)(methyl)amino)quinazoline-8-carbonitrile]
IC50 [1]: 0.1 to 1 µM
IC50 [2]: 0.1 to 1 µM
IC50 [3]: 0.1 to 1 µM
IC50 [4]: 0.1 to 1 µM
IC50 ([5]; GP2d): 0.1 to 1 µM

CN(c1nc(OC[C@@]23CCCN2C[C@H](F)C3)nc2c(F)c(-c3ccc(F)c4sc(N)c(C#N)c34)c(C(F)(F)F)cc12)[C@@H]1CCN(C(=O)CC#N)C1 (atropisomer, axis not shown) [Compound 103]
IC50 [1]: 0.1 to 1 µM
IC50 [2]: 0.1 to 1 µM
IC50 [3]: 0.1 to 1 µM
IC50 [4]: 0.1 to 1 µM
IC50 ([5]; GP2d): < 0.1 µM

COC[C@@H]1[C@H](N(C)c2nc(OC[C@@]34CCCN3C[C@H](F)C4)nc3c(F)c(-c4ccc(F)c5sc(N)c(C#N)c45)c(C(F)(F)F)cc23)CCN1C(C)=O [Compound 117]
IC50 [1]: 0.1 to 1 µM
IC50 [2]: 0.1 to 1 µM
IC50 [3]: 0.1 to 1 µM
IC50 [4]: 0.1 to 1 µM
IC50 ([5]; GP2d): < 0.1 µM

C[C@@H]1CN(c2nc(OC[C@@]34CCCN3C[C@H](F)C4)nc3c(F)c(-c4ccc(F)c5sc(N)c(C#N)c45)c(C(F)(F)F)cc23)CCO1 [Compound 141]
IC50 [1]: 0.1 to 1 µM
IC50 [2]: 0.1 to 1 µM
IC50 [3]: 1 to 10 µM
IC50 [4]: 0.1 to 1 µM
IC50 ([5]; GP2d): < 0.1 µM

CN(c1nc(OC[C@@]23CCCN2C[C@H](F)C3)nc2c(F)c(-c3ccc(F)c4sc(N)c(C#N)c34)c(C(F)(F)F)cc12)[C@H]1C[C@@H](O)C1 (single isomer, unassigned) [Compound 20]
IC50 [1]: 1 to 10 µM
IC50 [2]: 1 to 10 µM
IC50 [3]: 1 to 10 µM
IC50 [4]: 1 to 10 µM
IC50 ([5]; GP2d): 0.1 to 1 µM

N#Cc1c(N)sc2c(F)ccc(-c3c(C(F)(F)F)cc4c(N5C[C@@H](F)[C@@H](F)C5)nc(OC[C@@]56CCCN5C[C@H](F)C6)nc4c3F)c12 [Compound 157]
IC50 [1]: 0.1 to 1 µM
IC50 [2]: 0.1 to 1 µM
IC50 [3]: 1 to 10 µM
IC50 [4]: 0.1 to 1 µM
IC50 ([5]; GP2d): < 0.1 µM

CCN(c1nc(OC[C@@]23CCCN2C[C@H](F)C3)nc2c(F)c(-c3ccc(F)c4sc(N)c(C#N)c34)c(C(F)(F)F)cc12)[C@@H]1CCN(C(C)=O)[C@@H]1C [Compound 189]
IC50 [1]: 0.1 to 1 µM
IC50 [2]: 0.1 to 1 µM
IC50 [3]: 0.1 to 1 µM
IC50 [4]: 0.1 to 1 µM
IC50 ([5]; GP2d): < 0.1 µM

CCCN(C)c1nc(OC[C@@]23CCCN2C[C@H](F)C3)nc2c(F)c(-c3ccc(F)c4sc(N)c(C#N)c34)c(C(F)(F)F)cc12 [Compound 120]
IC50 [1]: 0.1 to 1 µM
IC50 [2]: 0.1 to 1 µM
IC50 [3]: 0.1 to 1 µM
IC50 [4]: 0.1 to 1 µM
IC50 ([5]; GP2d): < 0.1 µM

CO[C@H]1C[C@@H](N(C)c2nc(OC[C@@]34CCCN3C[C@H](F)C4)nc3c(F)c(-c4ccc(F)c5sc(N)c(C#N)c45)c(C(F)(F)F)cc23)C1 [Compound 27]
IC50 [1]: 0.1 to 1 µM
IC50 [2]: 0.1 to 1 µM
IC50 [3]: 1 to 10 µM
IC50 [4]: 0.1 to 1 µM
IC50 ([5]; GP2d): < 0.1 µM

CC(=O)N1CCN(c2nc(OC[C@@]34CCCN3C[C@H](F)C4)nc3c(F)c(-c4ccc(F)c5sc(N)c(C#N)c45)c(C(F)(F)F)cc23)C[C@H]1CC#N [Compound 184]
IC50 [1]: 1 to 10 µM
IC50 [2]: > 10 µM
IC50 [3]: > 10 µM
IC50 [4]: > 10 µM
IC50 ([5]; GP2d): 0.1 to 1 µM

C[C@@H](CO)N(C)c1nc(OC[C@@]23CCCN2C[C@H](F)C3)nc2c(F)c(-c3ccc(F)c4sc(N)c(C#N)c34)c(C(F)(F)F)cc12 [Compound 77]
IC50 [1]: < 0.1 µM
IC50 [2]: 0.1 to 1 µM
IC50 [3]: 0.1 to 1 µM
IC50 [4]: 0.1 to 1 µM
IC50 ([5]; GP2d): < 0.1 µM

C[C@@H]1CN(c2nc(OC[C@@]34CCCN3C[C@H](F)C4)nc3c(F)c(-c4ccc(F)c5sc(N)c(C#N)c45)c(C(F)(F)F)cc23)[C@@H](C)CO1 [Compound 140]
IC50 [1]: 0.1 to 1 µM
IC50 [2]: 1 to 10 µM
IC50 [3]: 1 to 10 µM
IC50 [4]: 1 to 10 µM
IC50 ([5]; GP2d): < 0.1 µM

CCN(CCO)c1nc(OC[C@@H]2CC3(CC3)CN2C)nc2c(F)c(-c3ccc(F)c4sc(N)c(C#N)c34)c(C(F)(F)F)cc12 [Compound 180]
IC50 [1]: 0.1 to 1 µM
IC50 [2]: 0.1 to 1 µM
IC50 [3]: 0.1 to 1 µM
IC50 [4]: 0.1 to 1 µM
IC50 ([5]; GP2d): < 0.1 µM

CN(CC(F)F)c1nc(OC[C@@]23CCCN2C[C@H](F)C3)nc2c(F)c(-c3ccc(F)c4sc(N)c(C#N)c34)c(C(F)(F)F)cc12 [Compound 164]
IC50 [1]: 0.1 to 1 µM
IC50 [2]: 0.1 to 1 µM
IC50 [3]: 0.1 to 1 µM
IC50 [4]: 0.1 to 1 µM
IC50 ([5]; GP2d): < 0.1 µM

CN(c1nc(OC[C@@]23CCCN2C[C@H](F)C3)nc2c(F)c(-c3ccc(F)c4sc(N)c(C#N)c34)c(C(F)(F)F)cc12)[C@@H]1C[C@H](O)[C@H]1CO [Compound 181]
IC50 [1]: < 0.1 µM
IC50 [2]: 0.1 to 1 µM
IC50 [3]: 0.1 to 1 µM
IC50 [4]: < 0.1 µM
IC50 ([5]; GP2d): < 0.1 µM
